The values below are quoted from earlier work in patent US7988985B2, “Pest repellent compositions and methods” (priority 2008, dated 2011).

In series [1] the test system is blackflies (Simulium spp.). Particulars: High-strength formulations containing up to 100% DEET.
Series [2] concerns mosquitoes (e.g., Anopheles, Culex pipiens, and Aeges aegypti). The conditions noted are these: High-strength formulations containing up to 100% DEET, 95%+ effective.
The test system of the next series is biting-insect. Particulars: Low-strength formulations containing 12.5% DEET.

Take `CCN(CC)C(=O)c1cccc(C)c1` [DEET, N,N,-diethyl-m-toluamide]: the “effective (repellent effectiveness)” value was no less than 95% in series [1] and 60-75% in the series on biting-insect. The duration of effectiveness entry in series [1] (95%+ effective) is “over 4 hours”; in series [2], 10 to 12 h.
